In US8461160B2, “Dihydropyrimidinones” (Hoffmann-La Roche, Inc., priority 2009, dated 2013):
pIC50: −log10 of the molar value.

Biological target: T1, BACE2 (Homo sapiens, UniProt Q9Y5Z0)
T1 construct: BACE2 enzyme ectodomain (derived from plasmid “pET17b-T7-hu proBACE2”) was prepared as described in Ostermann et al; T7 tag (N); made in house
T1 sequence (Q9Y5Z0 21-473 limits assumed): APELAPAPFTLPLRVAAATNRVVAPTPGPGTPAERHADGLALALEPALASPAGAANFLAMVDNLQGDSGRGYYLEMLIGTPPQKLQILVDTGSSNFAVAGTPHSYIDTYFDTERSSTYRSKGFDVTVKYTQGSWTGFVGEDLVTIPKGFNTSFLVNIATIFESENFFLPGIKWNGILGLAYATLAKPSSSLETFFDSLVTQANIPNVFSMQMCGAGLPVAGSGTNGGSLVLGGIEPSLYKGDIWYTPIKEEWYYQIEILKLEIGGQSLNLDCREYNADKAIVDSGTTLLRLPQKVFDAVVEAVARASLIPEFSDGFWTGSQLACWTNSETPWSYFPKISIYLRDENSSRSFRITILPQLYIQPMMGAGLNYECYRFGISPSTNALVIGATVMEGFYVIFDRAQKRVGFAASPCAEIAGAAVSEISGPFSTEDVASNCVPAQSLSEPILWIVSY
Assay: Fluorescent-peptide cleavage assay for BACE2 inhibition
Assay type: biochemical
Conditions: BACE2 enzyme ectodomain, fluorescent peptide WS EVNLD AEFRC-MR121, assay buffer pH 4.5, room temperature
Procedure, shortened: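 Pro-enzyme BACE2 was activated at 80 nM for 1 h at room temperature in 100 mM Na-acetate, 20 mM EDTA, 0.05% BSA, pH 4.5, then preincubated 10 min with compound. IC50 from sigmoidal dose-response fit.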

SMILES	pIC50
CN1C(=O)C(C)(C)[C@@](C)(c2cc(NC(=O)c3ccc(OC(F)F)cn3)ccc2F)N=C1N [Example 103, 5-Difluoromethoxy-pyridine-2-carboxylic acid [3-((S)-2-amino-1,4,5,5-tetramethyl-6-oxo-1,4,5,6-tetrahydro-pyrimidin-4-yl)-4-fluoro-phenyl]amide]	7.60
COc1cccnc1C(=O)Nc1ccc(F)c([C@@]2(C)N=C(N)N(C)C(=O)C2(C)C)c1 [Example 104, 3-Methoxy-pyridine-2-carboxylic acid [3-((S)-2-amino-1,4,5,5-tetramethyl-6-oxo-1,4,5,6-tetrahydro-pyrimidin-4-yl)-4-fluoro-phenyl]amide]	6.82
Cc1cccnc1C(=O)Nc1ccc(F)c([C@@]2(C)N=C(N)N(C)C(=O)C2(C)C)c1 [Example 105, 3-Methyl-pyridine-2-carboxylic acid [3-((S)-2-amino-1,4,5,5-tetramethyl-6-oxo-1,4,5,6-tetrahydro-pyrimidin-4-yl)-4-fluoro-phenyl]amide]	7.31
CN1C(=O)C(C)(C)[C@@](C)(c2cc(NC(=O)c3ncc(Cl)cn3)ccc2F)N=C1N [Example 106, 5-Chloro-pyrimidine-2-carboxylic acid [3-((S)-2-amino-1,4,5,5-tetramethyl-6-oxo-1,4,5,6-tetrahydro-pyrimidin-4-yl)-4-fluoro-phenyl]amide]	7.55
CN1C(=O)C(C)(C)[C@@](C)(c2cc(NC(=O)c3cnc(Cl)cn3)ccc2F)N=C1N [Example 107, 5-Chloro-pyrazine-2-carboxylic acid [3-((S)-2-amino-1,4,5,5-tetramethyl-6-oxo-1,4,5,6-tetrahydro-pyrimidin-4-yl)-4-fluoro-phenyl]amide]	7.57
CN1C(=O)C(C)(C)[C@@](C)(c2cc(NC(=O)c3ncccc3F)ccc2F)N=C1N [Example 108, 3-Fluoro-pyridine-2-carboxylic acid [3-((S)-2-amino-1,4,5,5-tetramethyl-6-oxo-1,4,5,6-tetrahydro-pyrimidin-4-yl)-4-fluoro-phenyl]amide]	7.55
CN1C(=O)C(C)(C)[C@@](C)(c2cc(NC(=O)c3ncoc3-c3ccccc3)ccc2F)N=C1N [Example 109, 5-Phenyl-oxazole-4-carboxylic acid [3-((S)-2-amino-1,4,5,5-tetramethyl-6-oxo-1,4,5,6-tetrahydro-pyrimidin-4-yl)-4-fluoro-phenyl]amide]	6.77
CN1C(=O)C(C)(C)[C@@](C)(c2cc(NC(=O)c3ccc(C(F)(F)F)cn3)ccc2F)N=C1N [Example 110, 5-Trifluoromethyl-pyridine-2-carboxylic acid [3-((S)-2-amino-1,4,5,5-tetramethyl-6-oxo-1,4,5,6-tetrahydro-pyrimidin-4-yl)-4-fluoro-phenyl]amide]	7.70
CN1C(=O)C(C)(C)[C@@](C)(c2cc(NC(=O)c3nccn3C)ccc2F)N=C1N [Example 111, 1-Methyl-1H-imidazole-2-carboxylic acid [3-((S)-2-amino-1,4,5,5-tetramethyl-6-oxo-1,4,5,6-tetrahydro-pyrimidin-4-yl)-4-fluoro-phenyl]amide]	6.72
CN1C(=O)C(C)(C)[C@@](C)(c2cc(NC(=O)c3cn(C)cn3)ccc2F)N=C1N [Example 112, 1-Methyl-1H-imidazole-4-carboxylic acid [3-((S)-2-amino-1,4,5,5-tetramethyl-6-oxo-1,4,5,6-tetrahydro-pyrimidin-4-yl)-4-fluoro-phenyl]amide]	5.90
COc1ccc(C(=O)Nc2ccc(F)c([C@@]3(C)N=C(N)N(C)C(=O)C3(C)C)c2)nc1 [Example 113, 5-Methoxy-pyridine-2-carboxylic acid [3-((S)-2-amino-1,4,5,5-tetramethyl-6-oxo-1,4,5,6-tetrahydro-pyrimidin-4-yl)-4-fluoro-phenyl]amide]	7.68
CN1C(=O)C(C)(C)[C@@](C)(c2cc(NC(=O)c3ccc(F)cn3)ccc2F)N=C1N [Example 114, 5-Fluoro-pyridine-2-carboxylic acid [3-((S)-2-amino-1,4,5,5-tetramethyl-6-oxo-1,4,5,6-tetrahydro-pyrimidin-4-yl)-4-fluoro-phenyl]amide]	7.37
CN1C(=O)C(C)(C)[C@@](C)(c2cc(NC(=O)c3ccc(C#N)cn3)ccc2F)N=C1N [Example 115, 5-Cyano-pyridine-2-carboxylic acid [3-((S)-2-amino-1,4,5,5-tetramethyl-6-oxo-1,4,5,6-tetrahydro-pyrimidin-4-yl)-4-fluoro-phenyl]amide]	7.20
Cc1cc(C(=O)Nc2ccc(F)c([C@@]3(C)N=C(N)N(C)C(=O)C3(C)C)c2)no1 [Example 116, 5-Methyl-isoxazole-3-carboxylic acid [3-((S)-2-amino-1,4,5,5-tetramethyl-6-oxo-1,4,5,6-tetrahydro-pyrimidin-4-yl)-4-fluoro-phenyl]amide]	6.08
CN1C(=O)C(C)(C)[C@@](C)(c2cc(NC(=O)c3ncco3)ccc2F)N=C1N [Example 117, Oxazole-2-carboxylic acid [3-((S)-2-amino-1,4,5,5-tetramethyl-6-oxo-1,4,5,6-tetrahydro-pyrimidin-4-yl)-4-fluoro-phenyl]amide]	6.64
CN1C(=O)C(C)(C)[C@@](C)(c2cc(NC(=O)c3ncc(C(F)(F)F)cc3Cl)ccc2F)N=C1N [Example 118, 3-Chloro-5-trifluoromethyl-pyridine-2-carboxylic acid [3-((S)-2-amino-1,4,5,5-tetramethyl-6-oxo-1,4,5,6-tetrahydro-pyrimidin-4-yl)-4-fluoro-phenyl]amide]	7.72
CN1C(=O)C(C)(C)[C@@](C)(c2cc(NC(=O)c3nc(Cl)ccc3C(F)(F)F)ccc2F)N=C1N [Example 119, 6-Chloro-3-trifluoromethyl-pyridine-2-carboxylic acid [3-((S)-2-amino-1,4,5,5-tetramethyl-6-oxo-1,4,5,6-tetrahydro-pyrimidin-4-yl)-4-fluoro-phenyl]amide]	6.25
CN1C(=O)C(C)(C)[C@@](C)(c2cc(NC(=O)c3cn4cc(Cl)ccc4n3)ccc2F)N=C1N [Example 120, 6-Chloro-imidazo[1,2-a]pyridine-2-carboxylic acid [3-((S)-2-amino-1,4,5,5-tetramethyl-6-oxo-1,4,5,6-tetrahydro-pyrimidin-4-yl)-4-fluoro-phenyl]amide]	7.37
CN1C(=O)C(C)(C)[C@@](C)(c2cc(NC(=O)c3ccn(C(F)F)n3)ccc2F)N=C1N [Example 121, 1-Difluoromethyl-1H-pyrazole-3-carboxylic acid [3-((S)-2-amino-1,4,5,5-tetramethyl-6-oxo-1,4,5,6-tetrahydro-pyrimidin-4-yl)-4-fluoro-phenyl]amide]	7.77
CN1C(=O)C(OCc2ccccc2)[C@@](C)(c2cc(NC(=O)c3ccc(Cl)cn3)ccc2F)N=C1N (stereo partly drawn) [Example 122, 5-Chloro-pyridine-2-carboxylic acid [3-((R)-2-amino-5-benzyloxy-1,4-dimethyl-6-oxo-1,4,5,6-tetrahydro-pyrimidin-4-yl)-4-fluoro-phenyl]amide]	8.00
CN1C(=O)C(O)[C@@](C)(c2cc(NC(=O)c3ccccn3)ccc2F)N=C1N (stereo partly drawn) [Example 123, Pyridine-2-carboxylic acid [3-((R)-2-amino-5-hydroxy-1,4-dimethyl-6-oxo-1,4,5,6-tetrahydro-pyrimidin-4-yl)-4-fluoro-phenyl]amide]	6.46
C[C@@]1(c2cccc(NC(=O)c3ccc(Cl)cn3)c2)CC(=O)N(CC2CC2)C(N)=N1 [Example 124, 5-Chloro-pyridine-2-carboxylic acid [3-((S)-2-amino-1-cyclopropylmethyl-4-methyl-6-oxo-1,4,5,6-tetrahydro-pyrimidin-4-yl)-phenyl]amide]	7.38
CN1C(=O)C[C@@](C)(c2ccc(F)c(NC(=O)c3ccc(Cl)cn3)c2)N=C1N [Example 125, 5-Chloro-pyridine-2-carboxylic acid [5-((S)-2-amino-1,4-dimethyl-6-oxo-1,4,5,6-tetrahydro-pyrimidin-4-yl)-2-fluoro-phenyl]amide]	6.51
CN1C(=O)C(C)(C)[C@@](C)(c2cc(NC(=O)c3ccc(Cl)cn3)ccc2Cl)N=C1N [Example 126, 5-Chloro-pyridine-2-carboxylic acid [3-((S)-2-amino-1,4,5,5-tetramethyl-6-oxo-1,4,5,6-tetrahydro-pyrimidin-4-yl)-4-chloro-phenyl]amide]	7.44
CN1C(=O)C[C@]2(CCc3ccc(NC(=O)c4ccc(Cl)cn4)cc32)N=C1N [Example 127, N-[(1S)-2′-amino-1′-methyl-6′-oxo-2,3,5′,6′-tetrahydro-1′H-spiro[indene-1,4′-pyrimidin]-6-yl]-5-chloropyridine-2-carboxamide]	6.80
CN1C(=O)C[C@]2(CCc3ccc(NC(=O)c4ccccn4)cc32)N=C1N [Example 128, N-[(1S)-2′-amino-1′-methyl-6′-oxo-2,3,5′,6′-tetrahydro-1′H-spiro[indene-1,4′-pyrimidin]-6-yl]pyridine-2-carboxamide]	5.78
CN1C(=O)C[C@]2(CCc3ccc(NC(=O)c4ccc(OCC(F)(F)F)cn4)cc32)N=C1N [Example 129, N-[(1S)-2′-amino-1′-methyl-6′-oxo-2,3,5′,6′-tetrahydro-1′H-spiro[indene-1,4′-pyrimidin]-6-yl]-5-(2,2,2-trifluoro-ethoxy)-pyridine-2-carboxamide]	6.66
